pIC50: −log10 of the molar value.
How the values were obtained:
CaCo-2 = assay: Neutral red uptake assay on CaCo-2; type: cell-based; settings: Homo sapiens; CaCo-2, 72 h treatment
Protocol: Based on the results obtained for the RPTEC cell line, the following concentrations of 4b–d were chosen to be applied to neoplastic cell lines: 0.1, 1, 10, 25, 50, and 100 µM. A172, AGS, CaCo-2, HeLa, and HepG2 cancer cell lines were used to perform a neutral red uptake assay. The obtained results were compared with a negative control (cell lines incubated without tested compounds), and half-maximal inhibitory concentration (IC50) values were calculated. Cell lines were plated in 96-well plates at a density of 1 × 10^4 cells/well. After 24 h incubation, which allowed the cells to attach and start to proliferate, the culture media were replaced with 4a–d dissolved in the appropriate medium at concentrations of 1, 10, 50, 100, 150 and 200 µM. […] Negative (1% DMSO in medium) and positive (1 µM staurosporine) controls were also included. Plates were incubated at 37 °C for 24, 48, and 72 h before the neutral red uptake assay. The neutral red uptake assay was performed as described by Repetto et al.. Briefly, the medium from all wells was discarded, the attached cells were washed with 100 µL PBS, and then 100 µL of neutral red working solution in medium (40 µg/mL) was added to each well. The neutral red solution was incubated overnight in the same conditions as the cells and centrifuged before being added to the cells. The plates were incubated for at least 2 h at 37 °C, 5% CO2, in a humidified atmosphere. Next, the neutral red medium was removed, and the cells were washed with 100 µL PBS. A 100 µL quantity of destain solution consisting of 50% ethanol, 1% glacial acetic acid, and deionized water was added to each well. Plates were incubated for 30 min with constant shaking on a horizontal shaker at 37 °C. Absorption was measured at 540 nm excitation. The cells’ viability was calculated by comparing results from experimental sets with negative controls according to the formula: % viability=ODtest substance−ODblind/ODnegative control−ODblind×100

AGS cells = assay: Flow cytometry FDA/PI staining, cell viability, AGS; type: cell-based, human
Protocol: A detailed analysis of potential cytotoxic mechanisms has been performed only for the selected compound (4b) where the IC50 values under 100 µM were detected in the screening NR assay. Flow cytometry was performed on the A172 and AGS cell lines. Cells were incubated with compound 4b at IC50 for 24, 48, and 72 h before analysis. Fluorescein diacetate (FDA) and propidium iodide (PI) were used as indicators for viable and nonviable (necrotic) cells. Most of the events were captured in the first and the fourth quadrant, which represent viable and necrotic cells, respectively. […] Similar results were obtained for the AGS cell line (Figure 8B), where the viability was 60.95%/55.10%/44.99% after the same incubation periods, respectively. Some events occurred in the second quadrant, but it was difficult to unequivocally categorize them into viable or nonviable (apoptotic/necrotic) cell populations, and thus more sensitive dyes, able to distinguish between the types of cell death, were needed.
Two approaches for flow cytometry were used—FDA/PI staining to determine cell viability and annexin V/PI staining for cell death pathway determination.
For cell viability determination, cells were plated in 6-well plates at a density of 1 × 10^5 cells/well and incubated for 24 h at 37 °C, 5% CO2 and in a humidified atmosphere. Next, cells were treated with 4b at a concentration calculated as IC50 in neutral red uptake assay. After 24, 48, and 72 h incubation, the cells (either adhered or floating) were collected, centrifuged at 1600 rpm, and washed with PBS. FDA and PI stock solution at a 1 mM concentration were prepared in DMSO and H2O, respectively. After centrifugation and supernatant discarding, cells were stained with FDA at a final concentration of 1 µM prepared in PBS and incubated in the dark. After 15 min, they were centrifuged at 1600 rpm, resuspended in ice-cold PBS, and placed on ice. Samples were stained with 1 µM PI for 2 min before the cytometry evaluation. […]

A172 = assay: Microscopic observations, Hoechst 33342 stain, A172; type: cell-based, human; settings: A172, at IC50, 24, 48 and 72 h
Protocol: (§1) In order to obtain information about cells and nuclei morphology, fluorescence microscopy was used. Briefly, after the incubation of A172 and AGS with compound 4b (at three time periods, namely 24, 48, and 72 h) cells were stained with Hoechst 33342 dye, which binds to DNA. Phase-contrast observations were also performed. […] Also, the cell membrane should be intact with a visible halo around the cells. In necrotic cells, the nuclei edges tend to be less clearly defined, and Hoechst 33342 results in a decreased fluorescence signal. This effect can be seen in a1,2 (A172) and b1,2 (AGS). […] To visualize morphological changes which occurred in the treated cells, microscopic observations were conducted using Hoechst 33342 stain. It is a blue fluorescent stain which allows observations of nuclei in eukaryotic cells. Also observations in bright fields were performed. Cells were stained according to the manufacturer’s protocol. Briefly, cells were plated in 12-well plates at a density of 1 × 10^5 cells/well and were incubated for 24 h at 37 °C, 5% CO2 in a humidified atmosphere. Next, cells were treated with 4b at an IC50 and further incubated for 24, 48, and 72 h. For microscopic observations cells were collected, washed with PBS and stained for 15 min with 1 µg/mL Hoechst 33342 dye. […]

AGS = assay: Microscopic observations, Hoechst 33342 stain, AGS; type: cell-based, human; settings: at IC50, 24, 48 and 72 h
Protocol: as §1

Question: Which results are given for `Cc1nc(-c2ccccc2)nc(Nc2ccc(F)cc2)c1C=Nc1cccc(Cl)c1` [compound 4b, 5-{[(3-chlorophenyl)imino]methyl}-N-(4-fluorophenyl)-6-methyl-2-phenylpyrimidin-4-amine]?
Answer: pIC50 (CaCo-2): < 4.00; Q1 events (viable cells; viability), FDA/PI (AGS cells; at IC50, 24 h): 60.95%; Q1 events (viable cells; viability), FDA/PI (AGS cells; at IC50, 48 h): 55.10%; Q1 events (viable cells; viability), FDA/PI (AGS cells; at IC50, 72 h): 44.99%; cell and nuclei morphology (A172): leads to necrosis; cell and nuclei morphology (AGS): leads to necrosis

From PMC10889512, “Pyrimidine Schiff Bases: Synthesis, Structural Characterization and Recent Studies on Biological Activities” (International Journal of Molecular Sciences, 2024)
